From paper PMC7657664 (Harmful algae, 2020)
pIC50: −log10 of the molar value. Read-outs that look alike come from different tables or passages of the source.

Legend:
[1] = target: T1, Torpedo-nAChR of embryonic muscle type (α1)2β1γδ (Torpedo marmorata, UniProt P02711+Q6S3H8+Q6S3H9); experiment: microplate receptor-binding assay, competition with biotin-α-bungarotoxin
[2] = target: T1, Torpedo-nAChR of embryonic muscle type (α1)2β1γδ; experiment: as above; remark: listed apart in the source

Compound	pIC50 [1]	pIC50 [2]
28-O-palmitoyl ester of pinnatoxin-G [Palmitoyl-PnTX-G]	4.88	
C=CC1=C[C@@H]2[C@@H]3O[C@]4(C[C@H]5CCC[C@@]6(CC[C@@]7(O[C@@H](CC[C@@]7(C)O)CC(=C)CCCC7=NC[C@H](C)[C@@H](C)C[C@@]72CC1)O6)O5)C[C@@H](C)[C@@H](O)[C@H]3O4 [PnTX-G, pinnatoxin-G]		7.73
